Like-named read-outs stand apart in the source and are kept apart here.
Assays:
[1] = target: T1, human MERTK cytoplasmic domain (Homo sapiens, UniProt Q12866); test: biochemical
T1 construct: human MERTK cytoplasmic domain (Carna Biosciences 08-108); purchased Carna Biosciences 08-108
Experimental: Assay 1a—MERTK HTRF KinEASE-TK Assay
The enzymatic reaction was carried out for 30 min at room temperature. 10 μL TK Antibody-Cryptate/Streptavidin-XL665 (Cisbio 610SAXLG) was then added for 60 min, including EDTA containing detection buffer (Cisbio 62SDBRDF) to stop the reaction.

[2] = target: T2, human AXL cytoplasmic domain (Homo sapiens, UniProt P30530); test: Assay 1b AXL HTRF KinEASE-TK assay; type: biochemical
T2 construct: human AXL cytoplasmic domain (Thermo Fisher A31515); purchased Thermo Fisher A31515
T2 sequence (P30530 473-894 limits assumed): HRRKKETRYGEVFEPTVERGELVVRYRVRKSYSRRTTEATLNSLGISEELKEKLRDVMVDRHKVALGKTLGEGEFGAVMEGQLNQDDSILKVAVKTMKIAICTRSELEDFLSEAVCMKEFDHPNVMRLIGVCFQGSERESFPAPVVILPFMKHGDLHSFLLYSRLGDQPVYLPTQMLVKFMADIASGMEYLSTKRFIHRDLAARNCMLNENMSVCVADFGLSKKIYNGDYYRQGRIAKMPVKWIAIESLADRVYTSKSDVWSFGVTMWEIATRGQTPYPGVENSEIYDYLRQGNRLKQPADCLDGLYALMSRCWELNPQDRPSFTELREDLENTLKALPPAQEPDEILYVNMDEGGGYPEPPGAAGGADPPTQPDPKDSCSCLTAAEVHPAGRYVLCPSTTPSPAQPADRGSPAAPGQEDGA
Experimental: Assay 1b—AXL HTRF KinEASE-TK Assay
Compound inhibition of human AXL cytoplasmic domain (Thermo Fisher A31515) enzymatic activity was tested via the HTRF KinEASE-tyrosine kinase (TK) kit (Cisbio 62TK0PEC). Experiments were performed in 20 μl enzymatic buffer (Cisbio 62EZBFDD) supplemented with 5 mM MgCl2, 1 mM MnCl2, 1 mM DTT, 50 nM SEB (Cisbio, 61SEBALB), with 5 nM of AXL and the test compounds of interest. […] The enzymatic reaction was carried out for 30 min at room temperature. 10 μL TK Antibody-Cryptate/Streptavidin-XL665 (Cisbio 610SAXLG) was then added for 60 min, including EDTA containing detection buffer (Cisbio 62SDBRDF) to stop the reaction. The plate was read on a BMG Pherastar FSX using a HTRF 337/620/665 optical module to excite the terbium donor at 337 nm, and record donor emission at 620 nm and acceptor fluorophore emission at 665 nm. From this the FRET ratio (acceptor 665 nm/donor 620 nm) for each data point was calculated. […] Competition curves were then fit to a 4 parameter logistic equation including a variable slope factor to determine the IC50 (compound concentration that inhibits 50% of AXL activity).

[3] = target: T3, Ba/F3 Pro B-cell line expressing TEL-human MERTK fusion domain (Homo sapiens, UniProt Q12866); type: cell-based
T3 sequence (Q12866 587-858 limits assumed): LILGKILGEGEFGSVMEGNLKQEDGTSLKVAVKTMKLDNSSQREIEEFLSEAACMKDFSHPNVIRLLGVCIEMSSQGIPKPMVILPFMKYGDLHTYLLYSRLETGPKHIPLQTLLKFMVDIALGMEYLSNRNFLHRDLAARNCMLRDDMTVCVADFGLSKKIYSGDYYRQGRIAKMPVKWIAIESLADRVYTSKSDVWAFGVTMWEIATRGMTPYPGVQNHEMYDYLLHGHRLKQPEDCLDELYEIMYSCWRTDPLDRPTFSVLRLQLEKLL
Experimental: (§1) Assay 5—Ba/F3 Cell Survival Assays.
(§2) The inhibitory potencies of compounds were assessed in a Ba/F3 cell survival assay, using the Ba/F3 Pro B-cell line, recombinantly expressing a BCR-human AXL kinase domain fusion protein (pACD320/AXL, Advanced Cellular Dynamics Inc), TEL-human MERTK fusion domain (pACD1000/MERTK, Advanced Cellular Dynamics Inc), TEL-human Tyro3 fusion domain (pACD1000/TYRO3, Advanced Cellular Dynamics Inc), or control TEL-none (ACD320, Advanced Cellular Dynamics Inc) BRC-none constructs (ACD1000, Advanced Cellular Dynamics Inc). 10 ng/mL recombinant murine IL3 (R&D, 403-ML-010) was included in the media when propagating negative control TEL-none or BCR-none lines only. […] The final assay DMSO concentration was 0.25%. Compound incubations were conducted for 48 h at 37° C./5% CO2, after which cell plate was equilibrated at room temperature for 20 minutes prior to assessing viability. 15 μl of Promega CellTiter-Glo reagent (G7572) was added to each well for 2 min on an orbital shaker to induce cell lysis.
(§3) The plate was then equilibrated for 5 min at room temperature and luminescence read on a BMG Pherastar FSX using the LUM plus optic module. […] Competition curves were then fit to a 4 parameter logistic equation including a variable slope factor to determine the IC50 (compound concentration causing a half-maximal inhibition of cell survival).

[4] = target: T4, Ba/F3 Pro B-cell line expressing BCR-human AXL kinase domain fusion protein (Homo sapiens, UniProt P30530); test: Assay 5 Ba/F3 cell survival assay, BCR-Axl; type: cell-based; details: read-out: BCR-Axl Ba/F3 IC50, 48 h, CellTiter-Glo
T4 construct: P11274 (Breakpoint cluster region protein)
T4 sequence (P30530 536-807 limits assumed): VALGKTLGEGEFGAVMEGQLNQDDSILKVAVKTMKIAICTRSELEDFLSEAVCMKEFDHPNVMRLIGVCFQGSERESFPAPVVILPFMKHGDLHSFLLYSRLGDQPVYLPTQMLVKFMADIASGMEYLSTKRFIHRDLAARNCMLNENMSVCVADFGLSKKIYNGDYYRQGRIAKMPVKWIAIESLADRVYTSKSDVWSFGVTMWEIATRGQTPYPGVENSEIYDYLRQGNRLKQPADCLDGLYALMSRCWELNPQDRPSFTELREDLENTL
Experimental: as §1, §2, §3

[5] = target: T5, Ba/F3 Pro B-cell line expressing TEL-human Tyro3 fusion domain (Homo sapiens, UniProt Q06418); type: cell-based; details: cell survival, 48 h, CellTiter-Glo
T5 sequence (Q06418 518-790 limits assumed): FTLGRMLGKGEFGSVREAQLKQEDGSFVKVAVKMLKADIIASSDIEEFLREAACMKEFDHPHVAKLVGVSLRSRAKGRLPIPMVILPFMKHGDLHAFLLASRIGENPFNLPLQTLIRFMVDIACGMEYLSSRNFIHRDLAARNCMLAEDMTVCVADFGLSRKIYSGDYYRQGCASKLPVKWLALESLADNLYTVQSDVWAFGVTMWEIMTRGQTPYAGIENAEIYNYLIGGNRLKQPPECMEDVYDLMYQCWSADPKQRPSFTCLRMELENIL
Experimental: as §1
as §2, with “only. Cells were maintained in RMPI 1640 (Corning 15-040-CV) culture media containing 10% heat inactivated semi-synthetic FBS (RMBIO FGR-BBT), 2 mM L-Glutamine (Sigma, G7513), 100 IU/mL Penicillin-[…] Streptomycin (Sigma, P4333), and 500 ng/mL Puromycin (Sigma, P8833). Experiments were performed in 50 μl growth media, including the test compounds of interest, and dispensing 5000 cells/well in logarithmic-phase growth into a 384 well white Optiplate (Perkin Elmer 6007299).” for “only.”
The plate was then equilibrated for 5 min at room temperature and luminescence read on a BMG Pherastar FSX using the LUM plus optic module. Data were normalised to measurements in the absence of competing compound (0% inhibition). Competition curves were then fit to a 4 parameter logistic equation including a variable slope factor to determine the IC50 (compound concentration causing a half-maximal inhibition of cell survival).

[6] = 30 uM ATP, read-out: Assay 1a Mer IC50 30 uM ATP
[7] = cell survival, 48 h, CellTiter-Glo; read-out: TEL-MERTK Ba/F3 IC50

T1 sequence (Q12866 527-999): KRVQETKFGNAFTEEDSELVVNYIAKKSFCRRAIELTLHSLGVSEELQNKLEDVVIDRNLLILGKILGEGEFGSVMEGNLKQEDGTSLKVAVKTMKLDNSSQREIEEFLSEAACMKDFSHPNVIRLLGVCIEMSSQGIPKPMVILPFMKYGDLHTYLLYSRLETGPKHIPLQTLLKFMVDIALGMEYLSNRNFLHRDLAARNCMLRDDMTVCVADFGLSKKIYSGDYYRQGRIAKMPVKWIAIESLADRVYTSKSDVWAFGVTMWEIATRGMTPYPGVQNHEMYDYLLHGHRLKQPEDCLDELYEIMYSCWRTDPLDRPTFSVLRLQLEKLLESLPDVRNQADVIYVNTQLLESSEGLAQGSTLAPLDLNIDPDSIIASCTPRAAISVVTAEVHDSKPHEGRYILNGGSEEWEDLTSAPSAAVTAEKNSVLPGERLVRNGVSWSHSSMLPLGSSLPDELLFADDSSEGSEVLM

Structure (SMILES)	IC50 [1]	IC50 [2]	IC50 ([3]; read-out: TEL-MERTK Ba/F3 IC50; cell survival, 48 h, CellTiter-Glo)	IC50 [4]	IC50 [5]	IC50 [1, 6]	IC50 [3, 7]
CN1CCC(Oc2cc3c(Oc4ccc(NC(=O)c5cccn(-c6ccc(F)cc6)c5=O)nc4)ccnc3cn2)CC1 [Example 24, 1-(4-fluorophenyl)-N-[5-[[6-[(1-methyl-4-piperidyl)oxy]-1,7-naphthyridin-4-yl]oxy]-2-pyridyl]-2-oxo-pyridine-3-carboxamide]	6 nM	21 nM	6 nM	6 nM	37 nM		
CC(C)n1cc(C(=O)Nc2ccc(Oc3ccnc4cnc(C(=O)NC5CCN(C(=O)OC(C)(C)C)CC5)cc34)cn2)c(=O)n(-c2ccc(F)cc2)c1=O [Example 27.1, tert-butyl 4-[[4-[[6-[[3-(4-fluorophenyl)-1-isopropyl-2,4-dioxo-pyrimidine-5-carbonyl]amino]-3-pyridyl]oxy]-1,7-naphthyridine-6-carbonyl]amino]piperidine-1-carboxylate]		3 nM		15 nM	881 nM	11 nM	67 nM
CC(C)(C)OC(=O)N1CCC(c2cc3c(Oc4ccc(NC(=O)c5cccn(-c6ccc(F)cc6)c5=O)nc4)ccnc3cn2)C1 (stereo not drawn) [Example 16.1, tert-butyl 3-[4-[[6-[[1-(4-fluorophenyl)-2-oxo-pyridine-3-carbonyl]amino]-3-pyridyl]oxy]-1,7-naphthyridin-6-yl]pyrrolidine-1-carboxylate]		27 nM		76 nM	1930 nM	4 nM	70 nM
O=C(Nc1ccc(Oc2ccnc3cnc(N4CCN(C5COC5)CC4)cc23)cn1)c1cccn(-c2ccc(F)cc2)c1=O [Example 10.2, 1-(4-fluorophenyl)-N-[5-[[6-[4-(oxetan-3-yl)piperazin-1-yl]-1,7-naphthyridin-4-yl]oxy]-2-pyridyl]-2-oxo-pyridine-3-carboxamide]		20 nM		14 nM	394 nM	2 nM	17 nM
O=C(Nc1ccc(Oc2ccnc3cnc(C4CCNC4)cc23)cn1)c1cccn(-c2ccc(F)cc2)c1=O (stereo not drawn) [Example 21, 1-(4-fluorophenyl)-2-oxo-N-[5-[(6-pyrrolidin-3-yl-1,7-naphthyridin-4-yl)oxy]-2-pyridyl]pyridine-3-carboxamide]		247 nM		203 nM	2390 nM	57 nM	217 nM
CC(C)(C)OC(=O)N1CCC(c2cc3c(Oc4ccc(NC(=O)c5cccn(-c6ccc(F)cc6)c5=O)nc4)ccnc3cn2)CC1 [Example 16.4, tert-butyl 4-[4-[[6-[[1-(4-fluorophenyl)-2-oxo-pyridine-3-carbonyl]amino]-3-pyridyl]oxy]-1,7-naphthyridin-6-yl]piperidine-1-carboxylate]		282 nM		154 nM	> 2500 nM	13 nM	195 nM
O=C(Nc1ccc(Oc2ccnc3cnc(C4=CCN(C5COC5)CC4)cc23)cn1)c1cccn(-c2ccc(F)cc2)c1=O [Example 16.2, 1-(4-fluorophenyl)-N-[5-[[6-[1-(oxetan-3-yl)-3,6-dihydro-2H-pyridin-4-yl]-1,7-naphthyridin-4-yl]oxy]-2-pyridyl]-2-oxo-pyridine-3-carboxamide]		18 nM		15 nM	144 nM	3 nM	14 nM
CC(C)n1cc(C(=O)Nc2ccc(Oc3ccnc4cnc(C(=O)NCCN(C)C)cc34)cn2)c(=O)n(-c2ccc(F)cc2)c1=O [Example 27.3, N-[2-(dimethylamino)ethyl]-4-[[6-[[3-(4-fluorophenyl)-1-isopropyl-2,4-dioxo-pyrimidine-5-carbonyl]amino]-3-pyridyl]oxy]-1,7-naphthyridine-6-carboxamide]		6 nM		21 nM	631 nM	31 nM	44 nM
CN1CCN(c2cc3c(Oc4ccc(NC(=O)c5cccn(-c6ccc(F)cc6)c5=O)cc4)ccnc3cn2)CC1 [Example 35, 1-(4-fluorophenyl)-N-[4-[[6-(4-methylpiperazin-1-yl)-1,7-naphthyridin-4-yl]oxy]phenyl]-2-oxo-pyridine-3-carboxamide]		60 nM		8 nM	116 nM	4 nM	14 nM
